Results on one compound are retold here after patent US10143696B2, “Methods and compositions for decreasing gastric emptying” (priority 2015, dated 2018).

Each structure is given as a SMILES string. Like-named read-outs stand apart in the source and are kept apart here.

In one data set the test system is cynomolgus monkeys. The data set is classed as in vivo. How it is done:
Studies in cynomolgous monkeys were conducted by Battelle (Columbus, Ohio). Eleven monkeys, seven males and four females that had been previously received, quarantined, and acclimated and were naïve (females), or had not been used on other studies for a minimum of 6 months (males), were utilized. Prior to use on study, monkeys were acclimated to chair restraint for up to 2 hours. Chair restraint was used to facilitate dose administration and blood collection. Animals were individually housed in stainless steel cages. Monkeys were offered a certified diet twice daily and had access to fresh water ad libitum. The animals also were supplemented with fresh fruits and/or fresh vegetables. Monkeys were fasted overnight prior to dose administration.
Observations for moribundity and mortality were performed on all animals twice daily throughout the duration of the study. Cage-side clinical observations were recorded for all animals prior to dose administration and at the times of blood collection.
As such, a pharmacokinetic and observational study was conducted in cynomologous monkeys (FIG. 16). Plasma concentrations of Compound A were measured following a single oral dose of 10, 50 and 100 mg/kg up to 24 hours post-dosing (FIGS. 16A, B and C).

For the next data set, the system named is CD1 mice. Description: Gastric emptying of a test meal in mice. Type of data set: in vivo. How it is done: Rats were fasted overnight (16-18 hours) with free access to water. The next morning, compound was administered and animals were individually housed in bedding-free cages with pre-weighed food available ad libitum and access to water for 2 hours. The water and food were then removed and the remaining food was re-weighed. Gastric emptying of the ingested meal was assessed 4 hours later. Animals were euthanized by CO2 inhalation followed by thoracotomy. The abdominal cavity was opened, the pylorus and cardia were clamped and the stomach was removed. The excised stomach was weighed and then opened along the greater curvature, rinsed with tap water, lightly dried and re-weighed. The amount of food in the stomach (grams) was estimated based on the difference between the total weight of the stomach plus its contents and the weight of the stomach after the contents were removed. The meal ingested (food intake) was determined by the difference between pre- and post-feeding weight at the end of the 2 hour period. Gastric emptying during the 4 hour experiment is represented as: Gastric emptying=[1−(gastric content/food intake)]×100. Gastric Secretion
Male, CD1 mice (weighing between 30-36 g each and 6 mice per test group) were fasted overnight (19 hours). The mice then were subcutaneously administered 3 mg/kg of Compound A with a 25% HPBCD vehicle, a 25% HPBCD vehicle alone, orally administered 100 mg/kg of Compound A with a 0.5% MC vehicle, or a 0.5% MC vehicle alone. The mice were then placed in individual, bedding-free cages and allowed ad libitium access to pre-weighed food and water for two hours. The food and water were then removed and the food was reweighed. Gastric emptying was assessed four hours later by euthanizing the mice and analyzing the stomach and stomach contents. Data were analyzed using an unpaired t-test where *P<0.05 and ***P<0.001 and represented as the means+S.E.M. % Gastric Emptying in 4 hours=(1−(gastric content/food intake)×100).

Setting [1] is: individual monkey presenting the highest plasma levels.
The mark [2] stands for this setting: monkey, p.o. 100 mg/kg, animals affected/animals dosed, 100 mg/kg.
Setting [3] is: p.o. 100 mg/kg, 0.5% MC vehicle.

As to `C[C@H](Nc1cc(C(N)=O)nc(-c2ccc(Oc3ccc(OC(F)(F)F)cc3)cc2)n1)C(N)=O` [Compound A], in the data set on cynomolgus monkeys (setting [1]), the “food intake after 24 hrs post-dosing” value is reported as “reduced food intake for at least two additional days post dosing”; the “food intake and feces production up to 24 hrs post-dosing” value is “zero food intake and zero feces production”. Besides, the “food consumption or feces production” value in the data set with cynomolgus monkeys (monkey, p.o. 10 mg/kg) was “no treatment related-effect was discernable”. Further, in the data set on cynomolgus monkeys (monkey, p.o. 10 mg/kg, animals affected/animals dosed, 10 mg/kg), the “Clinical Observations (frequency): Diarrhea” value is 2 out of the 3 and (2/3). Besides, the “Clinical Observations (frequency): Distended/Bloated Abdomen” value in the data set with cynomolgus monkeys (monkey, p.o. 50 mg/kg, animals affected/animals dosed, 50 mg/kg) is 2 out of 4 and Abdomen (2/4). Further, in the data set on cynomolgus monkeys (setting [2]), the “Clinical Observations (frequency): Distended/Bloated Abdomen” value was 2 out of 4 and Abdomen (2/4); the “Clinical Observations (frequency): Low Food Consumption” value is 2 out of the 4 and Consumption (2/4). In addition, in the data set with CD1 mice (setting [3]), the “% Gastric Emptying in 4 hours” value is on record as “inhibit gastric emptying” and the stomach weight result was “stomach weight increase”. In the data set on CD1 mice (s.c. 3 mg/kg, 25% HPBCD vehicle), the “% Gastric Emptying in 4 hours” value is given as “inhibit gastric emptying”.
